The text below walks through data of ChEMBL document CHEMBL3792350, “Discovery of a Potent and Orally Efficacious TGR5 Receptor Agonist” (ACS Med Chem Lett, 2016).

What all share (type): ADME, organism-based
Data set [1] is described as follows: Cmax in C57Bl/6 mouse at 3 mg/kg administered via oral gavage by LC-MS/MS analysis. The arrangement: dose 3 mg/kg, route oral. To be noted: in vivo.
Data set [2] can be described thus: Cmax in Sprague-Dawley rat at 3 mg/kg administered via oral gavage by LC-MS/MS analysis. The arrangement: dose 3 mg/kg, route oral. The conditions noted are these: in vivo.
Data set [3] is described as follows: AUC in C57Bl/6 mouse at 3 mg/kg administered via oral gavage by LC-MS/MS analysis. The conditions noted are these: in vivo.
The nature of data set [4]: AUC in Sprague-Dawley rat at 3 mg/kg administered via oral gavage by LC-MS/MS analysis. The conditions noted are these: in vivo.
Data set [5] in a line: Volume of distribution at steady state in C57Bl/6 mouse at 1 mg/kg, iv as bolus dose by LC-MS/MS analysis. To be noted: in vivo, read-out: Vdss.
Data set [6] in a line: Volume of distribution at steady state in Sprague-Dawley rat at 1 mg/kg, iv as bolus dose by LC-MS/MS analysis. The conditions noted are these: in vivo, read-out: Vdss.
A short description of data set [7]: Clearance in C57Bl/6 mouse at 1 mg/kg, iv as bolus dose by LC-MS/MS analysis. To be noted: in vivo.
Data set [8] can be described thus: Clearance in Sprague-Dawley rat at 1 mg/kg, iv as bolus dose by LC-MS/MS analysis. To be noted: in vivo.
A short description of data set [9]: Half life in C57Bl/6 mouse at 1 mg/kg, iv as bolus dose by LC-MS/MS analysis. The conditions noted are these: in vivo.
The nature of data set [10]: Half life in Sprague-Dawley rat at 1 mg/kg, iv as bolus dose by LC-MS/MS analysis. The conditions noted are these: in vivo.
Data set [11] can be described thus: Oral bioavailability in C57Bl/6 mouse at 3 mg/kg administered via oral gavage by LC-MS/MS analysis. The conditions noted are these: in vivo.
The nature of data set [12]: Oral bioavailability in Sprague-Dawley rat at 3 mg/kg administered via oral gavage by LC-MS/MS analysis. The conditions noted are these: in vivo.
The next data set deals with Mus musculus. Briefly: fAUC in po dosed diet-induced obese C57 mouse administered as single dose 15 mins. To be noted: in vivo, 0.25 h.

Take `COc1ccc(C(C)(C)c2cnc(SCCOc3ccc(-n4ccnc4)cc3)n2-c2ccc(F)cc2)cc1OC`: the values for the maximum concentration (Cmax) in data set [1] and in data set [2] were 789 ng/mL and 148 ng/mL, respectively. Moreover, the exposure (AUC) in [3] was 754 ng·h/mL; in data set [4] it was 207 ng·h/mL. Further, the Vd in data set [5] turned out to be 0.83 L/kg; in [6], 2.05 L/kg. Moreover, the clearance in data set [7] was determined as 47.3 mL/min/kg; in data set [8], 79.7 mL/min/kg. Also, the half-life was 19.8 min in data set [9] and 19.2 min in data set [10]. The figures for the bioavailability in data set [11] and in [12] were 71% and 31%, respectively. Also, the fAUC with Mus musculus is 231.38 ng·h/mL.
Consider `COc1ccc(C(C)(C)c2cnc(SCc3c(F)cccc3Cl)n2-c2ccc(F)cc2)cc1OC`, for which the Cmax in [1] stood at 51.8 ng/mL. In addition, in data set [3], the AUC was 73.5 ng·h/mL. Moreover, the Vd in data set [5] was determined as 1.54 L/kg. In addition, the clearance in data set [7] was 45.5 mL/min/kg. The compound further showed a half-life in data set [9] of 45.6 min. In addition, in data set [11], the bioavailability came out at 7%.
